Our source for the TGI values is PubChem BioAssay (NCI).

Some test systems named below: SK-MEL-28 melanoma; HS 578T breast; MDA-MB-231 breast; MOLT-4 leukemia; SK-MEL-5 melanoma; A549 NSCLC; MDA-MB-435.
Common to all, as to test: NCI tumour cell line growth inhibition, 48 h

The structures appear in SMILES notation.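 Cells were grown in 96-well plates and exposed to each compound for 48 hours at five concentrations; endpoints were interpolated linearly between bracketing concentrations, or set to the highest concentration if not reached. TGI denotes the concentration required for complete inhibition of growth.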

As for `CCOC(=O)C(NC(=O)c1ccccc1)(Nc1ccc(Cl)cc1C(F)(F)F)C(F)(F)F` (configuration not stated), the TGI in the experiment with SK-MEL-28 melanoma was over 100 µM; with HS 578T breast, over 100 µM; with MDA-MB-231 breast, 77.2 µM; with MOLT-4 leukemia it was over 22.2 µM; with SK-MEL-5 melanoma, over 37.5 µM; in the experiment on A549 NSCLC, over 100 µM. This compound showed a TGI in the experiment on MDA-MB-435 of 3.24 µM.
In the case of `COC(=O)[C@H](Cc1ccc(OC(C)(C)C)cc1)N[C@H](C)C(=O)N[C@@H](Cc1ccccc1)C(=O)OCc1ccccc1`, the TGI is over 100 µM in the experiment on SK-MEL-28 melanoma; over 100 µM with HS 578T breast; over 100 µM in the experiment on MDA-MB-231 breast; 50 µM with MOLT-4 leukemia; over 100 µM with SK-MEL-5 melanoma; over 100 µM in the experiment with A549 NSCLC. In the experiment on MDA-MB-435, the TGI was over 100 µM.
Regarding `COC(=O)[C@H](CC(C)C)Nc1c(O)c2c(c(O)c1Cl)C(=O)C=CC2=O`, the TGI in the experiment on SK-MEL-28 melanoma, in the experiment on HS 578T breast, with MDA-MB-231 breast, with MOLT-4 leukemia, with SK-MEL-5 melanoma and in the experiment on A549 NSCLC was over 10 µM in each case. In the experiment with MDA-MB-435, the TGI was over 10 µM.
Consider `COc1ccc(C2CC3(c4ccccc4)ON=C(c4ccccc4)N3c3ccccc3S2)cc1` (configuration not stated), for which the TGI in the experiment on SK-MEL-28 melanoma, with HS 578T breast, in the experiment with MDA-MB-231 breast, in the experiment on SK-MEL-5 melanoma, in the experiment on A549 NSCLC and with MDA-MB-435 was over 100 µM each time.
`CN1CCC2(CC1)C(=NC1CCCCC1)NC(=S)N2c1ccccc1`: the TGI in the experiment on SK-MEL-28 melanoma was over 100 µM; in the experiment on HS 578T breast, 88.3 µM; in the experiment with MDA-MB-231 breast it was over 100 µM; with MOLT-4 leukemia it was over 100 µM; in the experiment with SK-MEL-5 melanoma it was over 100 µM; in the experiment with A549 NSCLC, over 100 µM. Moreover, the TGI in the experiment with MDA-MB-435 is over 100 µM.
As for `CC(=O)OC12c3ccccc3-c3ccccc3C1C1C(=O)OC(=O)C12` (configuration not stated), the TGI in the experiment on SK-MEL-28 melanoma, in the experiment with HS 578T breast, with MDA-MB-231 breast, with MOLT-4 leukemia, in the experiment on SK-MEL-5 melanoma and in the experiment with MDA-MB-435 was over 10 µM each time.
Take `CCOC(=O)C(=O)/C(=C/N1C(=O)CC(=O)NC1=S)C(=O)OCC`: the TGI with SK-MEL-28 melanoma, with HS 578T breast, with MDA-MB-231 breast, in the experiment on MOLT-4 leukemia, in the experiment on SK-MEL-5 melanoma and in the experiment on A549 NSCLC was over 100 µM each time. Moreover, the TGI in the experiment with MDA-MB-435 was over 100 µM.
As to `COc1ccccc1/C=C1\NC(=S)N(/C=C2\C(=O)Oc3ccccc3C2=O)C1=O`, the TGI in the experiment on SK-MEL-28 melanoma is over 100 µM; in the experiment with HS 578T breast, over 100 µM; in the experiment with MDA-MB-231 breast it was over 100 µM; in the experiment with MOLT-4 leukemia, 72.6 µM; in the experiment with SK-MEL-5 melanoma, 78.7 µM; with A549 NSCLC, over 100 µM. Further, in the experiment with MDA-MB-435, the TGI was over 100 µM.
For the compound `O=C(CNC(c1ccccc1)(c1ccccc1)c1ccccc1)NC1CCCCC1NC(=O)CNC(c1ccccc1)(c1ccccc1)c1ccccc1` (configuration not stated), the TGI with SK-MEL-28 melanoma, in the experiment on HS 578T breast, in the experiment on MDA-MB-231 breast, with MOLT-4 leukemia, in the experiment with SK-MEL-5 melanoma and in the experiment on A549 NSCLC was over 100 µM in each case. This compound had a TGI with MDA-MB-435 of over 100 µM.
With `O=C1C=CC(=O)c2c1ccc1c3ccccc3n(Cc3cccc([N+](=O)[O-])c3)c21`, the TGI in the experiment on SK-MEL-28 melanoma is over 60.4 µM; in the experiment on HS 578T breast it was over 100 µM; in the experiment with MDA-MB-231 breast, 61.1 µM; with MOLT-4 leukemia it was 37.7 µM; in the experiment on SK-MEL-5 melanoma, over 100 µM; in the experiment on A549 NSCLC, over 100 µM. In the experiment on MDA-MB-435, the TGI was over 65.2 µM.
Regarding `Nc1nc2c(ncn2Cc2ccccc2CO)c(=O)[nH]1`, the TGI in the experiment with SK-MEL-28 melanoma, with HS 578T breast, with MDA-MB-231 breast, in the experiment with MOLT-4 leukemia, in the experiment on SK-MEL-5 melanoma and in the experiment on A549 NSCLC was over 100 µM throughout. In the experiment with MDA-MB-435, this compound gave a TGI of over 100 µM.
In the case of `COC(=O)CCC(C)C1CCC2C3C(C[C@H](OC(C)=O)[C@]12C)[C@@]1(C)CCC2(C[C@H]1C[C@H]3OC(C)=O)OOC1(CC[C@]3(C)C4C[C@H](OC(C)=O)[C@]5(C)C(C(C)CCC(=O)OC)CCC5C4[C@H](OC(C)=O)C[C@@H]3C1)OO2` (some centres not stated), the TGI in the experiment on SK-MEL-28 melanoma, with HS 578T breast, in the experiment with MDA-MB-231 breast, in the experiment with MOLT-4 leukemia, in the experiment with SK-MEL-5 melanoma and with A549 NSCLC was over 100 µM each time. Further, the TGI in the experiment with MDA-MB-435 is over 100 µM.
In the case of `CC1C(OC2O[C@@H]3O[C@@]4(C)CC[C@H]5[C@H](C)CC[C@@H](C2C)[C@@]35O4)O[C@@H]2O[C@@]3(C)CC[C@H]4[C@H](C)CC[C@@H]1[C@@]24O3` (some centres not stated), the TGI in the experiment on SK-MEL-28 melanoma, with HS 578T breast, with MDA-MB-231 breast, in the experiment on MOLT-4 leukemia, with SK-MEL-5 melanoma and with A549 NSCLC was over 50 µM in each case. Also, the TGI in the experiment on MDA-MB-435 was over 50 µM.
Regarding `C=C(CN1CC2C[C@](C(=O)OC)(c3cc4ccccc4[nH]3)C1C(OC)C2OC)S(=O)(=O)c1ccccc1` (some centres not stated), the TGI was determined as 25.5 µM in the experiment with SK-MEL-28 melanoma; 10.9 µM in the experiment on HS 578T breast; 10.9 µM in the experiment with MDA-MB-231 breast; 2.83 µM in the experiment with MOLT-4 leukemia; 10.7 µM with SK-MEL-5 melanoma; 12.6 µM in the experiment on A549 NSCLC. Moreover, the TGI in the experiment on MDA-MB-435 is 7.21 µM.
Consider `CC(C)(CCCCC(C)(C)[N+](C)(C)C)[N+](C)(C)C`, for which the TGI in the experiment with SK-MEL-28 melanoma, in the experiment with HS 578T breast, in the experiment with MDA-MB-231 breast, with MOLT-4 leukemia, with SK-MEL-5 melanoma and with A549 NSCLC was over 100 µM each time. In addition, the TGI with MDA-MB-435 is over 100 µM.
As for `Fc1ccc(-c2sc(-c3cccs3)cc2Cc2cccs2)cc1`, the TGI with SK-MEL-28 melanoma, in the experiment on HS 578T breast, with MDA-MB-231 breast, with MOLT-4 leukemia, in the experiment on SK-MEL-5 melanoma and in the experiment with A549 NSCLC was over 100 µM each time. The TGI with MDA-MB-435 is over 100 µM.
As for `O=C(C/C(=N/O)c1cc(-c2ccccc2)no1)c1ccccc1`, the TGI was over 100 µM in the experiment on SK-MEL-28 melanoma; 66.6 µM in the experiment with HS 578T breast; 46.1 µM with MDA-MB-231 breast; over 100 µM with MOLT-4 leukemia; over 100 µM with SK-MEL-5 melanoma; over 100 µM with A549 NSCLC. This compound came in with a TGI with MDA-MB-435 of over 100 µM.
Turning to `O=C1C=C(OCCCCl)C(=O)c2c(O)ccc(O)c21`, the TGI in the experiment on SK-MEL-28 melanoma came to 2.08 µM; in the experiment on HS 578T breast it was 6.56 µM; in the experiment with MDA-MB-231 breast, 3.39 µM; in the experiment on MOLT-4 leukemia, 6.06 µM; in the experiment on SK-MEL-5 melanoma, 0.306 µM; with A549 NSCLC, 0.645 µM. Besides, the TGI with MDA-MB-435 turned out to be 0.364 µM.
On to `COc1ccc2cc(-c3nc(N)nc(N4N=C(C)CC4(C)C)n3)c(=N)oc2c1`, for which the TGI was 31.8 µM with SK-MEL-28 melanoma; 66.4 µM in the experiment with HS 578T breast; 44.8 µM in the experiment on MDA-MB-231 breast; 33.7 µM with MOLT-4 leukemia; 30.1 µM with SK-MEL-5 melanoma; over 100 µM in the experiment on A549 NSCLC. The TGI with MDA-MB-435 was 42.1 µM.
Take `COC(=O)C1=C(C(=O)OC)SC2(S1)C(C(=O)OC)=C(C(=O)OC)Sc1c2ssc1=Nc1ccc(Cl)cc1`: the TGI in the experiment with SK-MEL-28 melanoma was 3.66 µM; in the experiment on HS 578T breast it was over 100 µM; in the experiment with MDA-MB-231 breast, 2.17 µM; in the experiment on MOLT-4 leukemia, 5.04 µM; in the experiment with SK-MEL-5 melanoma, 2.96 µM; in the experiment on A549 NSCLC, 3.13 µM. This compound also came in with a TGI in the experiment on MDA-MB-435 of 2.14 µM.
For `Cc1nnc(N)nc1/C=C/c1c(O)ccc2ccccc12`, the TGI with SK-MEL-28 melanoma is over 100 µM; in the experiment on HS 578T breast, 85 µM; with MDA-MB-231 breast, over 100 µM; in the experiment on MOLT-4 leukemia it was over 100 µM; in the experiment on SK-MEL-5 melanoma, 94.4 µM; in the experiment on A549 NSCLC, over 100 µM. The compound also gave a TGI with MDA-MB-435 of 79.5 µM.
As to `CC(=O)C1=C(C)N(c2ccc(C)cc2)C2(O)C3=C(C(=O)c4ccccc4C3=O)C(O)=CC12Cl` (configuration not stated), the TGI in the experiment on SK-MEL-28 melanoma was 79.4 µM; in the experiment with HS 578T breast it was over 100 µM; in the experiment on MDA-MB-231 breast it was over 100 µM; in the experiment on MOLT-4 leukemia it was over 100 µM; with SK-MEL-5 melanoma it was 22.2 µM; in the experiment on A549 NSCLC it was over 100 µM. Also, the TGI in the experiment on MDA-MB-435 worked out at 14.3 µM.
Take `c1ccc2c(c1)CCc1[nH]c3c(c1-2)-c1ccccc1CC3`: the TGI in the experiment on SK-MEL-28 melanoma, with HS 578T breast, with MDA-MB-231 breast, with MOLT-4 leukemia, with SK-MEL-5 melanoma and in the experiment with A549 NSCLC was over 100 µM each time. The compound further showed a TGI with MDA-MB-435 of over 100 µM.
As to `OCCOc1ccccc2cccc1-2`, the TGI in the experiment with SK-MEL-28 melanoma, with HS 578T breast, with MDA-MB-231 breast, in the experiment on SK-MEL-5 melanoma, in the experiment with A549 NSCLC and with MDA-MB-435 was over 100 µM in each case.
As for `Cn1c(=O)sc2cc(C(=S)N3CCC(Cc4ccccc4)CC3)ccc21`, the TGI with SK-MEL-28 melanoma, with HS 578T breast, in the experiment on MDA-MB-231 breast, in the experiment on MOLT-4 leukemia, in the experiment on SK-MEL-5 melanoma and with MDA-MB-435 was over 100 µM in each case.
Turning to `CCOC1Oc2ccccc2-c2nc(SC)ncc21` (configuration not stated), the TGI in the experiment with HS 578T breast, with MDA-MB-231 breast, in the experiment on MOLT-4 leukemia, with SK-MEL-5 melanoma, in the experiment with A549 NSCLC and in the experiment with MDA-MB-435 was over 100 µM in each case.
